Experimental data from patent US11963972B2, “Antiviral agents and nucleoside analogs for treatment of Zika virus” (priority 2016, dated 2024).
pEC50: −log10 of the molar value.

Columns and labels:
[1] = Cytotoxicity MTT assay in PBM cells; assay type: cell-based; conditions: human
Procedure: v) Cellular Toxicity Assays: Nucleoside and nucleoside monophosphate prodrugs can be evaluated for their potential toxic effects on P4/R5 cells, MT-2 cells and uninfected PHA-stimulated human PBM cell. Log-phase P4/R5, MT-2, and PHA-stimulated human PBM cells can be seeded at 5×10^3 to 5×10^4 cells/well in 96-well cell culture plates containing 10-fold serial dilutions of the test drug. The cultures can be incubated for 2-4 days, after which 3-(4,5-dimethylthiazol-2-yl)-2,5-diphenyltetrazolium bromide (MTT) dye solution (Promega, Madison, WI) can be added to each well and incubated overnight. The reaction can be stopped with stop solubilization solution (Promega, Madison, WI) and plates can be read at a wavelength of 570 nm. The median 50% cytotoxic concentration (CC50) can be determined from the concentration-response curve using the median effect method.
(§1) The toxicity of the compounds can be assessed in Vero, human PBM, CEM (human lymphoblastoid), and can be assessed in MT-2, and HepG2 cells, as described previously (see Schinazi R. F., Sommadossi J.-P., Saalmann V., Cannon D. L., Xie M.-Y., Hart G. C., Smith G. A. & Hahn E. F. Antimicrob. Agents Chemother. 1990, 34, 1061-67). Cycloheximide can be included as positive cytotoxic control, and untreated cells exposed to solvent can be included as negative controls. The cytotoxicity (IC50) can be obtained from the concentration-response curve using the median effective method described previously (see Chou T.-C. & Talalay P. Adv. Enzyme Regul. 1984, 22, 27-55; Belen'kii M. S. & Schinazi R. F. Antiviral Res. 1994, 25, 1-11).

[2] = Cytotoxicity MTT assay in CEM cells; assay type: cell-based; conditions: human
Description: as §1

[3] = Cytotoxicity MTT assay in Vero cells; assay type: cell-based; conditions: African green monkey
Description: as §1

[4] = Cytotoxicity MTT assay in HepG2 cells; assay type: cell-based; conditions: human
Description: as §1

[5] = Cytotoxicity MTT assay in Huh7 cells; assay type: cell-based; conditions: human
[6] = tested on: ZIKV Puerto Rico strain (PRVABC59); test: ZIKV CPE MTS assay in Vero cells; assay type: cell-based, Zika virus; conditions: Zika virus; for IC50: 96 h, read-out: ZIKV CPE MTS Assay IC50 (μM) Vero; for inhibition at 20 µM / inhibition at 10 µM: read-out: ZIKV CPE MTS Assay percentage of inhibition at the concentration, Vero
Procedure: (§2) […] Cell cytopathic effect (CPE) MTS assay (CellTiter 96@k) AQueous One Solution Cell Proliferation Promega kit, Promega) was measured four (Vero) or five (U251 or Huh7) days after compound addition to determine the levels of replication inhibition.

[7] = tested on: ZIKV Puerto Rico strain (PRVABC59); test: ZIKV CPE MTS assay in Huh7 cells; assay type: cell-based, Zika virus; conditions: Zika virus; for IC50: Huh-7, 120 h, read-out: ZIKV CPE MTS Assay IC50 (μM) Huh7
Procedure: as §2

[8] = tested on: ZIKV Puerto Rico strain (PRVABC59); test: ZIKV CPE MTS assay in human neuroblastoma (U251) cells; assay type: cell-based, Zika virus; conditions: Zika virus; for IC50: U-251, 120 h, read-out: ZIKV CPE MTS Assay IC50 (μM) H251
Procedure: as §2

[9] = tested on: Zika virus; test: Zika-infected Vero cell model, 4G2 antibody staining, FACS; assay type: cell-based; conditions: 72 h, MOI 0.1, Day 3, FACS, read-out: percent inhibition of Zika-infected Vero cells
Procedure: At 8 AM on Day 1, 10,000 cells/well were plated in a 96 well plate. At 2 PM, MOI 0.1 Zika virus was added. At 3 PM, virus inoculum was removed, and various concentrations of drug-containing medium was added, at multiple concentrations (duplicates of […]).
On Day 3, supernatants were harvested, and frozen for later RT-PCR confirmation. Cells were harvested, stained with 4G2 antibody, and intracellular virus was quantified with FACS. The EC50/EC90 were then calculated.
Concentrations of 10, 1, 0.1, 0.01 μM were assayed in duplicate for 10 total drugs. All cells were harvested, but the only cells stained with antibody were those contacted with the following compounds, in the listed concentrations:
All gates were established using uninfected cells as a control, and were maintained for all test conditions.

[10] = tested on: DENV-2; test: DENV-2 Huh-7 infectious assay; assay type: cell-based; conditions: Dengue virus, DENV2, Huh-7
[11] = tested on: DENV-2; test: DENV-2 VERO infectious assay; assay type: cell-based, Dengue virus; conditions: Dengue virus, DENV2, Vero
[12] = Vero cells, MOI=0.01, four days
[13] = U-251, read-out: ZIKV CPE MTS Assay percentage of inhibition at the concentration, H251

SMILES | IC50 [3] [µM] | IC50 [5] [µM] | IC50 ([1]; PBM cells) [µM] | IC50 [2] [µM] | IC50 ([6]; Vero) [µM] | inhibition at 20 µM ([6]; Vero) [%] | IC50 [7] [µM] | IC50 [8] [µM] | inhibition at 20 µM [8, 13] [%] | further results
CC1(O)C(O)[C@@H](CO)O[C@H]1n1ccc(N)nc1=O (stereo partly drawn) | > 100 | > 100 |  |  |  |  |  |  |  | IC50 ([1]; PHA-stimulated human PBM cells): 65.4 µM; IC50 ([2]; CEM lymphoblastoid cells): 84.3 µM; IC50 [4]: 59.1 µM; IC50 [6, 12]: 9.2 µM; IC50 ([7]; Huh7 cells, MOI=0.5, five days): 9.3 µM; IC50 ([8]; H251 cells, MOI=0.5, five days): 16.3 µM
C[C@@]1(O)C(O)[C@@H](CO)O[C@H]1n1cnc2c(N)ncnc21 (stereo partly drawn) |  |  |  |  |  |  |  |  |  | IC50 [6, 12]: 20 µM; IC50 ([7]; Huh7 cells, MOI=0.5, five days): 3.4 µM; IC50 ([8]; H251 cells, MOI=0.5, five days): > 20 µM; inhibition at 20 µM ([8]; U-251, H251 cells, at 20 μM, read-out: ZIKV CPE MTS Assay percentage of inhibition at the concentration, H251): 24%
C[C@@]1(O)C(n2cnc3c(N)ncnc32)O[C@H](CO)[C@@H]1O (stereo partly drawn) | > 100 |  |  |  |  |  |  |  |  | IC50 ([1]; PHA-stimulated human PBM cells): > 100 µM; IC50 ([2]; CEM lymphoblastoid cells): > 100 µM; IC50 [6, 12]: 13.1 µM; IC50 ([7]; Huh7 cells, MOI=0.5, five days): 1.7 µM; IC50 ([8]; H251 cells, MOI=0.5, five days): > 10 µM; inhibition at 10 µM ([8]; U-251, H251 cells, at 10 μM, read-out: ZIKV CPE MTS Assay percentage of inhibition at the concentration, H251): 37%
CCOC(=O)[C@H](C)NP(=O)(OCC1C(n2cnc3c(N)cc(N)nc32)C[C@](C)(O)[C@@H]1O)Oc1ccccc1 (stereo partly drawn) | > 100 | > 100 | > 100 | > 100 | > 20 | 1 | 2.9 | > 20 | 42 | 
CCOC(=O)[C@@H](C)NP(=O)(OC[C@H]1O[C@@H](n2ccc(NO)nc2=O)C(C)(O)C1O)Oc1ccccc1 (stereo partly drawn) | > 100 | > 100 | > 100 | > 100 | > 20 | 1 | 5 | > 20 | 27 | 
CCOC(=O)[C@H](C)NP(=O)(OC[C@H]1O[C@@H](n2cnc3c(N)nc(N=[N+]=[N-])nc32)C(C)(O)C1O)Oc1ccccc1 (stereo partly drawn) | > 100 | > 100 | > 100 | > 100 | > 20 | 3 | < 20 | > 20 | 34 | IC50 [4]: > 100 µM; inhibition at 20 µM ([7]; Huh-7, read-out: ZIKV CPE MTS Assay percentage of inhibition at the concentration, Huh7): 88%
CCOC(=O)[C@H](C)NP(=O)(OCC1O[C@@H](n2cnc3c(NOC)nc(N)nc32)[C@](C)(O)[C@@H]1O)Oc1ccccc1 (stereo partly drawn) | > 100 | 94 | > 100 | 28 | > 20 | 19 | 4.7 | > 20 | 43 | 
CC(C)OC(=O)[C@H](C)NP(=O)(OC[C@H]1O[C@@H](n2ccc(NO)nc2=O)C(C)(O)C1O)Oc1ccccc1 (stereo partly drawn) | > 100 | > 100 | > 100 | > 100 | > 20 | 1 | 0.8 | > 20 | 3 | 
CC(C)OC(=O)[C@H](C)NP(=O)(OCC1O[C@@H](n2cnc3c(N=[N+]=[N-])nc(N)nc32)[C@](C)(O)[C@@H]1O)Oc1ccccc1 (stereo partly drawn) | > 100 | > 100 | > 100 | > 100 | > 20 | 1 | 11.5 | > 20 | 20 | 
CC(C)OC(=O)[C@H](C)NP(=O)(OCC1O[C@@H](n2cnc3c(N)nc(N)nc32)[C@](C)(O)[C@@H]1O)Oc1ccccc1 (stereo partly drawn) | > 100 | > 100 | > 100 | > 100 | > 20 | 1 | 3.7 | > 20 | 25 | 
CC(C)OC(=O)[C@H](C)NP(=O)(OC[C@H]1O[C@@H](n2cc(F)c3c(N)ncnc32)[C@](C)(O)C1O)Oc1ccccc1 (stereo partly drawn) | > 100 |  | 34.7 | 92.1 | > 20 |  | 7.6 | > 10 |  | inhibition at 10 µM [8, 13]: 1%
CC(C)OC(=O)[C@H](C)N[P@](=O)(OC[C@H]1O[C@@H](n2ccc(=O)[nH]c2=O)[C@](C)(F)[C@@H]1O)Oc1ccccc1 | > 100 | 49.3 | > 100 | > 100 | > 20 | 1 | 5.7 | > 20 | 17 | 
CC(C)OC(=O)[C@H](C)NP(=O)(OC[C@H]1O[C@@H](n2ccc(=O)[nH]c2=O)[C@@](F)(Cl)C1O)Oc1ccccc1 (stereo partly drawn) | > 100 |  | > 100 | > 100 | < 10 |  |  |  |  | inhibition at 10 µM ([6]; Vero): 76%
CC(C)OC(=O)[C@H](C)NP(=O)(OC[C@H]1O[C@@H](n2ccc(N)nc2=O)C(F)(Cl)C1O)Oc1ccccc1 (stereo partly drawn) | > 100 |  | > 100 | > 100 | < 10 |  |  |  |  | inhibition at 10 µM ([6]; Vero): 80%
CC1(F)C(O)[C@@H](CO)O[C@H]1n1ccc(N)nc1=O (stereo partly drawn) | > 100 |  |  |  |  |  |  |  |  | IC50 ([1]; PHA-stimulated human PBM cells): > 100 µM; IC50 ([2]; CEM lymphoblastoid cells): > 100 µM; IC50 [4]: > 100 µM; IC50 [6, 12]: ≤ 10 µM; inhibition at 10 µM ([6]; Vero cells, at 10 μM): 65%
C[C@@H]1C[C@@H]([C@H](O)CC2CC(=O)NC(=O)C2)C(=O)[C@@H](C)C1 | 0.2 |  | 0.9 | 0.2 |  |  |  |  |  | IC50 [4]: 0.3 µM
CC1(O)C(O)[C@@H](CO)O[C@H]1n1cc(F)c2c(N)ncnc21 (stereo in doubt) |  |  |  |  |  |  |  |  |  | inhibition at 0.01 µM [9]: 21%; inhibition at 0.1 µM [9]: 59%; inhibition at 1 µM [9]: 73%; inhibition at 10 µM [9]: 83%
CC1(O)C(O)[C@@H](CO)O[C@H]1n1cc(F)c2c(N)ncnc21 (stereo partly drawn) [drawing 83] |  |  |  |  |  |  |  |  |  | pEC50 [10]: 5.59; pEC50 [11]: 5.07
O=c1nc(NO)ccn1[C@@H]1O[C@H](CO)C(O)C1O (stereo partly drawn) [drawing 85] |  |  |  |  |  |  |  |  |  | inhibition at 0.01 µM [9]: 0%; inhibition at 0.1 µM [9]: 5%; inhibition at 1 µM [9]: 35%; inhibition at 10 µM [9]: 57%
CC1(O)C(O)[C@@H](CO)O[C@H]1n1cc(F)c2c(N)ncnc21 (stereo partly drawn) [drawing 91] | > 100 | 17.5 |  |  |  |  |  |  |  | IC50 ([1]; PHA-stimulated human PBM cells): 83.7 µM; IC50 ([2]; CEM lymphoblastoid cells): 33.6 µM; IC50 [6, 12]: 5.1 µM; IC50 ([7]; Huh7 cells, MOI=0.5, five days): 1.7 µM; IC50 ([8]; H251 cells, MOI=0.5, five days): 6.1 µM
O=C(O)c1cc(/N=N/c2ccc(S(=O)(=O)Nc3ccccn3)cc2)ccc1O [drawing 106] | > 100 |  |  |  |  |  |  |  |  | IC50 ([1]; PHA-stimulated human PBM cells): > 100 µM; IC50 ([2]; CEM lymphoblastoid cells): > 100 µM; IC50 [4]: > 100 µM
O=c1nc(NO)ccn1[C@@H]1O[C@H](CO)C(O)C1O (stereo partly drawn) [drawing 107] | 7.7 |  |  |  |  |  |  |  |  | IC50 ([1]; PHA-stimulated human PBM cells): 30.6 µM; IC50 ([2]; CEM lymphoblastoid cells): 2.5 µM; IC50 [6, 12]: 3.2 µM; IC50 ([7]; Huh7 cells, MOI=0.5, five days): 5.1 µM; IC50 ([8]; H251 cells, MOI=0.5, five days): 4.3 µM
